This is an account of results in article PMC11255254, “ER-associated VAP27-1 and VAP27-3 proteins functionally link the lipid-binding ORP2A at the ER-chloroplast contact sites” (Nature Communications, 2024).

The target of the assay is T1, ORP2A (His-ORP2A; ORP2A-His) (Arabidopsis thaliana, UniProt Q940Y1).
T1 construct: full-length, His6 tag kept (N-terminal in pET16b; also ORP2A-His), E. coli BL21
T1 sequence (Q940Y1 1-721): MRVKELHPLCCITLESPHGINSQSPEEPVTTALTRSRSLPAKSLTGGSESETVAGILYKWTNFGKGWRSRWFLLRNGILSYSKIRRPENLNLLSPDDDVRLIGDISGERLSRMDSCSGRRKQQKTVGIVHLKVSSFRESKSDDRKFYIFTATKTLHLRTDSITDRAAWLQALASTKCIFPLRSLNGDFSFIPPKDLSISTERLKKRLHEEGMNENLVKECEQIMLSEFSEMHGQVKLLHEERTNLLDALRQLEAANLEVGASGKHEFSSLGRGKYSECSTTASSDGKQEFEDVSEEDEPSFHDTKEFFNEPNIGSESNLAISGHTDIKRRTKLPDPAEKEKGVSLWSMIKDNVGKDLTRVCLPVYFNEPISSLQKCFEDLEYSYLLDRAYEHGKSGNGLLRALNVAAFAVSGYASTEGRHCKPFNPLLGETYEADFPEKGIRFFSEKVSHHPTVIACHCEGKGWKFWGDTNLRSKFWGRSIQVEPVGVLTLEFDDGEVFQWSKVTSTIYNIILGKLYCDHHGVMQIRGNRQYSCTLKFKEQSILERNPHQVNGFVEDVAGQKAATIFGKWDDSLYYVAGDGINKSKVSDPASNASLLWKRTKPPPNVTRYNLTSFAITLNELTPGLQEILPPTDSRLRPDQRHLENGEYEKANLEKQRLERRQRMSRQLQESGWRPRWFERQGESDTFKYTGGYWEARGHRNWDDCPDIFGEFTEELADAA
In words: protein-lipid overlay (fat blot), anti-His immunoblot. In kind it is binding. The note with it: 15 μg sterol spotted on nitrocellulose; overnight incubation in purified protein. For orientation: Immunoblotting shows a protein as a band on a membrane.
For `CC[C@H](/C=C/[C@@H](C)[C@H]1CC[C@H]2[C@@H]3CC=C4C[C@@H](O)CC[C@]4(C)[C@H]3CC[C@]12C)C(C)C` [stigmasterol], the “protein-lipid overlay (fat blot), anti-His immunoblot” value is “recombinant ORP2A-His shows that the protein interacts with β-sitosterol, stigmasterol and campesterol”.
Regarding `CC[C@H](CC[C@@H](C)[C@H]1CC[C@H]2[C@@H]3CC=C4C[C@@H](O)CC[C@]4(C)[C@H]3CC[C@]12C)C(C)C` [β-sitosterol], the “protein-lipid overlay (fat blot), anti-His immunoblot” value is “recombinant ORP2A-His shows that the protein interacts with β-sitosterol, stigmasterol and campesterol”.
The entry for `CC(C)[C@H](C)CC[C@@H](C)[C@H]1CC[C@H]2[C@@H]3CC=C4C[C@@H](O)CC[C@]4(C)[C@H]3CC[C@]12C` [campesterol] is “recombinant ORP2A-His shows that the protein interacts with β-sitosterol, stigmasterol and campesterol”.
